Counter-ions that a name gives are not always drawn. Like-named read-outs stand apart in the source and are kept apart here. Starred links: 1 amine or outer side, 2 acyl side, 3 side chain; linkers in the order of their positions; H or OH if unused. Positions of bridges follow the written chain, without caps; N, C: chain ends. Non-standard residues stand in square brackets, D forms with d. Residues, ends and D or L forms follow the SMILES beside them. Chains are numbered I, II in the order given. Actinocin(9to1) = Cc1c2oc3c(C)ccc(C(=O)[*:1])c3nc-2c(C(=O)[*:2])c(N)c1=O; NMeV = CN[C@H](C(=O)O)C(C)C; Sar = CNCC(=O)O
What was measured:
TNF = experiment: In vitro chemical screen (Spectrum collection): TNF secretion by E. coli challenged THP-1 cells, DAS-ELISA; assay type: cell-based, human
Description: (§1) We identified 45 leading candidates (Figure 1A and Table I) that inhibited both cytokines.
(§2) THP-1 human monocytes (American Tissue Culture Collection-ATCC TIB-202) were plated in 96 well plates at 10^6 cell/ml and incubated with each one of ∼2320 compounds included in the Spectrum collection (Microsource Discovery Systems, Gaylordsville, CT) at 10µM for 1 hour. Cells were then challenged with 4% PFA-fixed DH5α E.coli at a Multiplicity of Infection (MOI) of 20 bacterial cells per THP-1 cell for an additional 24 hours. The cell supernatants were collected and IL-1β and TNF cytokines quantified by DAS-ELISA, using Human IL-1β/IL-1F2 DuoSet® and Human TNF DuoSet® (R&D Systems ®), respectively, according to company's protocol.
(§3) We generated a working subset of The RNAi Consortium (TRC) shRNA lentiviral vector library ^33,33 that allows for the silencing of most of the genes that are either human kinases or phosphatases. This subset was composed of 1440 individually arrayed lentiviral shRNA vectors targeting ∼700 genes, after selecting the most efficient shRNAs (two on average) based on available silencing efficiency data from the Broad Institute of MIT and Harvard. THP-1 cells were plated in 96 well plates at 10^6 cell/ml and infected with shRNA-expressing lentivirus. 48 hrs later infected cells were selected with puromycin. After the 3 days of selection, plates were duplicated. One of the plates was used to measure the cell number using Alamar Blue® cell viability assay (Invitrogeia®), according to manufacturer's instructions. In the other plate, cells were stimulated with 4% PFA-fixed DH5α E.coli at a Multiplicity of Infection (MOI) of 20 bacterial cells per THP-1 cell. Twenty-four hours after stimulation, cell supernatants were collected and IL-1β and TNF cytokines quantified by DAS-ELISA. All data values from IL-1β and TNF secretion assays were normalized by dividing the amount of IL-1β and TNF in the conditioned media 24, 12, 8, 6, 4 or 2 hrs after E. coli stimulation by the number of cells in each well and then by the average concentration per cell of the plate. Results were logarithmic natural transformed. Scores were sorted in ascending order and graphed. We calculated 1.5 SDEVs above and below the mean to identify the genes that changed IL-1β and TNF secretion when silenced. The same approach was used to identify the compounds that changed IL-1β and TNF secretion. The selected genes were submitted to two or more rounds of phenotypic validation.

IL-1β = experiment: In vitro chemical screen (Spectrum collection): IL-1β secretion by E. coli challenged THP-1 cells, DAS-ELISA; assay type: cell-based, human
Description: as §1, §2, §3

[1] = THP-1 cells, 10µM compound for 1 hour, then PFA-fixed E. coli (MOI 20) for 24 hours

Row | Structure (SMILES) | Z score TNFa (TNF; [1]) | Z score IL1b (IL-1β; [1]) | Z score TNFa (TNF) | Z score IL1b (IL-1β)
1 | C[C@H](NCCc1ccc(O)cc1)[C@H](O)c1ccc(O)cc1 (racemic) [Ritodrine hydrochloriide] | -2,149761571 | -1,268303571 | – | –
2 | O=C1C=CC(=O)c2ccccc21 [1,4-naphthoquinone] | -2,77797604 | -1,349015947 | – | –
3 | CC1(C)C(=O)C=C[C@]2(C)[C@H]3CC[C@@]4(C)[C@H](c5ccoc5)OC(=O)[C@H]5O[C@]54[C@]3(C)C=C[C@@H]12 [7-desacetoxy-6,7-dehydrogedunin] | -2,517707805 | -1,789647817 | – | –
4 | CC(=O)Oc1c2c(c(CC=C(C)C)c3c1C(=O)C1=C[C@@H]4CC5C(C)(C)OC(C/C=C(\C)C(=O)O)(C4=O)[C@@]15O3)OC(C)(CCC=C(C)C)C=C2 (stereo partly shown) [Acetyl isogambogic acid] | -3,056795183 | -1,48116787 | – | –
5 | CCCCCCc1ccc(O)cc1O.Nc1c2ccccc2nc2ccccc12 [Acrisorcin] | -3,10607388 | -0,959612692 | – | –
6 | CC[C@@]1(O)C[C@H](O[C@H]2C[C@H](N(C)C)[C@H](O)[C@H](C)O2)c2c(cc3c(c2O)C(=O)c2c(O)cccc2C3=O)[C@H]1C(=O)OC [Aklavine hydrochloride] | -3,511681732 | -1,408917561 | – | –
7 | CCC(=O)OCC(=O)[C@@]1(OC(=O)CC)[C@H](C)C[C@H]2[C@H]3[C@H]([C@@H](O)C[C@@]21C)[C@@]1(C)C=CC(=O)C=C1C[C@H]3Cl [Alclometazone dipropionate] | -1,999200408 | -0,922964076 | – | –
8 | CCCCC(CC)CNC(=N)NC(=N)NCCCCCCNC(=N)NC(=N)NCC(CC)CCCC (stereo not shown) [Alexidine hydrochloride] | -2,648173863 | – | – | –
9 | CC(=O)O[C@@H]1C[C@@]2(C)[C@H](c3ccoc3)C[C@H]3O[C@]32[C@]2(C)C(=O)C(O)=C3C(C)(C)C(=O)C=C[C@]3(C)[C@@H]12 [Anthothecol] | -2,834385142 | -1,868706598 | – | –
10 | S=C=NCc1ccccc1 [Benzyl isothiocyanate] | -2,908582737 | -1,034306584 | – | –
11 | CC(=O)OCC(=O)[C@@]1(O)[C@@H](C)C[C@H]2[C@@H]3CCC4=CC(=O)C=C[C@]4(C)[C@@]3(F)[C@@H](O)C[C@@]21C [Betamethasone acetate] | -2,560814606 | -0,950513609 | – | –
12 | CC1(C)C(=O)C=C[C@@]2(C)C1=C(O)C(=O)[C@]1(C)[C@@H]2CC[C@@]2(C)[C@H](c3ccoc3)C[C@H]3O[C@]321 [Cedrelone] | -2,817231786 | -1,852572153 | – | –
13 | CC1=C(O)C(=O)C=C2C1=CC=C1[C@@]2(C)CC[C@@]2(C)[C@@H]3C[C@](C)(C(=O)O)CC[C@]3(C)CC[C@]12C [Celastrol] | -2,941287145 | -1,499560887 | – | –
14 | C=C1C(=O)O[C@H]2C[C@@H]1C(OC(C)=O)C/C(C)=C/CC/C(C)=C/CC[C@@]2(C)O (stereo partly shown) [Crassin acetate] | -4,448741528 | -2,126298968 | – | –
15 | Cc1c2oc3c(C)ccc(C(=O)N[C@@H]4C(=O)N[C@H](C(C)C)C(=O)N5CCC[C@H]5C(=O)N(C)CC(=O)N(C)[C@@H](C(C)C)C(=O)O[C@@H]4C)c3nc-2c(C(=O)N[C@@H]2C(=O)N[C@H](C(C)C)C(=O)N3CCC[C@H]3C(=O)N(C)CC(=O)N(C)[C@@H](C(C)C)C(=O)O[C@@H]2C)c(N)c1=O [Dactinomycin] (I: T[dV]P[Sar][NMeV] / II: T[dV]P[Sar][NMeV]; ester I:1-I:C, II:1-II:C; linker I:N-II:N via Actinocin(9to1)) | -4,13760156 | -1,187827575 | – | –
16 | CC1(C)O[C@@H]2C[C@H]3[C@@H]4CCC5=CC(=O)C=C[C@]5(C)[C@H]4[C@@H](O)C[C@]3(C)[C@]2(C(=O)CO)O1 [Desonide] | -2,297715909 | -0,945977097 | – | –
17 | C[C@@H]1C[C@H]2[C@@H]3CCC4=CC(=O)C=C[C@]4(C)[C@@]3(F)[C@@H](O)C[C@]2(C)[C@H]1C(=O)CO [Desoxymetasone] | -2,417754689 | -0,995122645 | – | –

Row | Structure (SMILES) | Z score TNFa (TNF; [1]) | Z score IL1b (IL-1β; [1]) | Z score TNFa (TNF) | Z score IL1b (IL-1β)
18 | Cc1c(O)c(O)cc2c1CC=C1[C@@]2(C)CC[C@@]2(C)[C@@H]3C[C@](C)(C(=O)O)CC[C@]3(C)CC[C@]12C [Dihydrocelastrol] | -3,387513735 | -1,102010407 | – | –
19 | CC(C)=CCCC1(C)C=Cc2c(O)c3c(c(CC=C(C)C)c2O1)OC12C(=CC4CC1C(C)(C)OC2(C/C=C(/C)C(=O)O)C4O)C3=O (stereo not shown) [Dihydrogambogic acid] | -2,488781431 | -1,48996453 | – | –
20 | CS(=O)(=O)CCCCN=C=S [Erysolin] | -4,442389411 | -1,162701697 | – | –
21 | CCOc1ccc2nc3cc(N)ccc3c(N)c2c1 [Ethacridine lactate] | -2,218841761 | -1,389229184 | – | –
22 | CC(C)=CCC[C@]1(C)C=Cc2c(O)c3c(c(CC=C(C)C)c2O1)O[C@]12C(=C[C@@H]4CC1C(C)(C)O[C@@]2(C/C=C(/C)C(N)=O)C4=O)C3=O [Gambogic acid amide] | -3,013926221 | -1,517154207 | – | –
23 | CC(C)=CCC[C@]1(C)C=Cc2c(O)c3c(c(CC=C(C)C)c2O1)O[C@]12C(=C[C@@H]4C[C@H]1C(C)(C)O[C@@]2(C/C=C(/C)C(=O)O)C4=O)C3=O [Gambogic acid] | -3,862359373 | -1,529656531 | – | –
24 | CN(C)c1ccc(C(=C2C=CC(=[N+](C)C)C=C2)c2ccc(N(C)C)cc2)cc1 [Gentian violet] | -2,696385799 | -1,835724332 | – | –
25 | C=C1C(=O)O[C@@H]2C[C@@]3(C)CCC[C@H](C)C3=C[C@H]12 [Helenine] | -2,683894042 | -0,943744357 | – | –
26 | CCCCC(=O)O[C@]1(C(=O)CO)CC[C@H]2[C@@H]3CCC4=CC(=O)CC[C@]4(C)[C@H]3[C@@H](O)C[C@@]21C [Hydrocortisone valerate] | -2,794271243 | -2,722889618 | – | –
27 | COc1cc2oc3cc(OC)c(OC)c(CC=C(C)C)c3c(=O)c2c(OC)c1CC=C(C)C [Mangostin trimethyl ether] | -3,162805301 | -1,634164354 | – | –
28 | O=C1c2c(O)ccc(O)c2C(=O)c2c(NCCNCCO)ccc(NCCNCCO)c21 [Mitoxanthrone hydrochloride] | -2,562729474 | -1,158920135 | – | –
29 | COC1=CC(=O)C(O)=C/C1=C\C=C\c1ccccc1 [Obtusaquinone] | -3,829374842 | -1,532189516 | – | –
30 | O=C1C=C2C(=CCOC2O)O1 (stereo not shown) [Patulin] | – | – | -2,874616362 | -0,902703858
31 | CC(C)=CC1C(C(=O)OCc2cccc(Oc3ccccc3)c2)C1(C)C (stereo not shown) [Phenothrin] | -2,810792588 | -0,983918754 | – | –
32 | C[C@]12C=CC(=O)C=C1CC[C@@H]1[C@@H]2[C@@H](O)C[C@@]2(C)[C@H]1CC[C@]2(O)C(=O)COC(=O)CCC(=O)O [Prednisolone hemisuccinate] | -2,72427413 | -2,095888301 | – | –
33 | COC(=O)[C@]1(C)CC[C@]2(C)CC[C@]3(C)C4=CC=C5C(=CC(=O)C(O)=C5C)[C@]4(C)CC[C@@]3(C)[C@@H]2C1 [Pristimerin] | -3,474946679 | -0,952562058 | – | –
34 | CC[C@@]1(O)C[C@H](O[C@H]2C[C@H](N(C)C)[C@H](O)[C@H](C)O2)c2c(cc3c(c2O)C(=O)c2c(O)ccc(O)c2C3=O)[C@H]1C(=O)OC [Pyrromycin] | -2,980583694 | -1,456377283 | – | –
